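The compound was tested at five concentrations on cells cultured in 96-well plates, with a 48-hour exposure period. At the GI50, growth is halved. The concentration for full growth arrest is given as TGI.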
Columns and labels:
Assay in all cases: NCI tumour cell line growth inhibition, 48 h
786-0 renal = tested on: 786-0 renal
A498 renal = tested on: A498 renal
A549 NSCLC = tested on: A549 NSCLC
ACHN renal = tested on: ACHN renal
BT-549 breast = tested on: BT-549 breast
CAKI-1 renal = tested on: CAKI-1 renal
CCRF-CEM leukemia = tested on: CCRF-CEM leukemia
COLO 205 colon = tested on: COLO 205 colon
DU-145 prostate = tested on: DU-145 prostate
EKVX NSCLC = tested on: EKVX NSCLC
HCC-2998 colon = tested on: HCC-2998 colon
HCT-116 colon = tested on: HCT-116 colon
HCT-15 colon = tested on: HCT-15 colon
HL-60(TB) leukemia = tested on: HL-60(TB) leukemia
HOP-62 NSCLC = tested on: HOP-62 NSCLC
HOP-92 NSCLC = tested on: HOP-92 NSCLC
HS 578T breast = tested on: HS 578T breast
HT29 colon = tested on: HT29 colon
IGROV1 ovarian = tested on: IGROV1 ovarian
K-562 leukemia = tested on: K-562 leukemia
KM12 colon = tested on: KM12 colon
M14 melanoma = tested on: M14 melanoma
MCF7 breast = tested on: MCF7 breast
MDA-MB-231 breast = tested on: MDA-MB-231 breast
MDA-MB-435 = tested on: MDA-MB-435
MOLT-4 leukemia = tested on: MOLT-4 leukemia
NCI-H226 lung = tested on: NCI-H226 lung
NCI-H23 lung = tested on: NCI-H23 lung
NCI-H460 lung = tested on: NCI-H460 lung
NCI-H522 lung = tested on: NCI-H522 lung
NCI/ADR-RES ovarian = tested on: NCI/ADR-RES ovarian
OVCAR-3 ovarian = tested on: OVCAR-3 ovarian
OVCAR-4 ovarian = tested on: OVCAR-4 ovarian
OVCAR-5 ovarian = tested on: OVCAR-5 ovarian
OVCAR-8 ovarian = tested on: OVCAR-8 ovarian
PC-3 prostate = tested on: PC-3 prostate
RPMI-8226 leukemia = tested on: RPMI-8226 leukemia
RXF 393 renal = tested on: RXF 393 renal
SF-268 CNS = tested on: SF-268 CNS
SF-295 CNS = tested on: SF-295 CNS
SF-539 CNS = tested on: SF-539 CNS
SK-MEL-2 melanoma = tested on: SK-MEL-2 melanoma
SK-MEL-28 melanoma = tested on: SK-MEL-28 melanoma
SK-MEL-5 melanoma = tested on: SK-MEL-5 melanoma
SK-OV-3 ovarian = tested on: SK-OV-3 ovarian
SN12C renal = tested on: SN12C renal
SNB-19 CNS = tested on: SNB-19 CNS
SNB-75 CNS = tested on: SNB-75 CNS
SR leukemia = tested on: SR leukemia
SW-620 colon = tested on: SW-620 colon
T-47D breast = tested on: T-47D breast
TK-10 renal = tested on: TK-10 renal
U251 CNS = tested on: U251 CNS
UACC-257 melanoma = tested on: UACC-257 melanoma
UACC-62 melanoma = tested on: UACC-62 melanoma
UO-31 renal = tested on: UO-31 renal
LOX IMVI melanoma = tested on: LOX IMVI melanoma
MALME-3M melanoma = tested on: MALME-3M melanoma

## COc1ccc(CCNC(=O)Cc2ccccc2CCO)cc1OC
786-0 renal
  TGI: > 100 µM
A498 renal
  TGI: > 100 µM
A549 NSCLC
  TGI: > 100 µM
ACHN renal
  TGI: > 100 µM
BT-549 breast
  TGI: > 100 µM
CAKI-1 renal
  TGI: > 100 µM
CCRF-CEM leukemia
  TGI: > 100 µM
COLO 205 colon
  TGI: > 100 µM
DU-145 prostate
  TGI: > 100 µM
EKVX NSCLC
  TGI: > 100 µM
HCC-2998 colon
  TGI: > 100 µM
HCT-116 colon
  TGI: > 100 µM
HCT-15 colon
  TGI: > 100 µM
HL-60(TB) leukemia
  TGI: > 100 µM
HOP-62 NSCLC
  TGI: > 100 µM
HOP-92 NSCLC
  TGI: > 100 µM
HS 578T breast
  TGI: > 100 µM
HT29 colon
  TGI: > 100 µM
IGROV1 ovarian
  TGI: > 100 µM
K-562 leukemia
  TGI: > 100 µM
KM12 colon
  TGI: > 100 µM
M14 melanoma
  TGI: > 100 µM
MCF7 breast
  TGI: > 100 µM
MDA-MB-231 breast
  TGI: > 100 µM
MDA-MB-435
  TGI: > 100 µM
MOLT-4 leukemia
  TGI: > 100 µM
NCI-H226 lung
  TGI: > 100 µM
NCI-H23 lung
  TGI: > 100 µM
NCI-H460 lung
  TGI: > 100 µM
NCI-H522 lung
  TGI: > 100 µM
NCI/ADR-RES ovarian
  TGI: > 100 µM
OVCAR-3 ovarian
  TGI: > 100 µM
OVCAR-4 ovarian
  TGI: > 100 µM
OVCAR-5 ovarian
  TGI: > 100 µM
OVCAR-8 ovarian
  TGI: > 100 µM
PC-3 prostate
  TGI: > 100 µM
RPMI-8226 leukemia
  TGI: > 100 µM
RXF 393 renal
  TGI: > 100 µM
SF-268 CNS
  TGI: > 100 µM
SF-295 CNS
  TGI: > 100 µM
SF-539 CNS
  TGI: > 100 µM
SK-MEL-2 melanoma
  TGI: > 100 µM
SK-MEL-28 melanoma
  TGI: > 100 µM
SK-MEL-5 melanoma
  TGI: > 100 µM
SK-OV-3 ovarian
  TGI: > 100 µM
SN12C renal
  TGI: > 100 µM
SNB-19 CNS
  TGI: > 100 µM
SNB-75 CNS
  TGI: > 100 µM
SR leukemia
  TGI: > 100 µM
SW-620 colon
  TGI: > 100 µM
T-47D breast
  TGI: > 100 µM
TK-10 renal
  TGI: > 100 µM
U251 CNS
  TGI: > 100 µM
UACC-257 melanoma
  TGI: > 100 µM
UACC-62 melanoma
  TGI: > 100 µM
UO-31 renal
  TGI: > 100 µM

## CN1CCN(c2ccc3nc(-c4ccc5nc(-c6ccc(C(F)(F)F)cc6)[nH]c5c4)[nH]c3c2)CC1
786-0 renal
  GI50: 3.3 µM
  TGI: 12.7 µM
A498 renal
  GI50: 10.7 µM
  TGI: 29.6 µM
A549 NSCLC
  GI50: 1.94 µM
  TGI: 3.91 µM
ACHN renal
  GI50: 3.94 µM
  TGI: 17.7 µM
BT-549 breast
  GI50: 5.91 µM
  TGI: 22.5 µM
CAKI-1 renal
  GI50: 2.97 µM
  TGI: 15.7 µM
CCRF-CEM leukemia
  GI50: 1.56 µM
  TGI: 3.68 µM
COLO 205 colon
  GI50: 1.37 µM
  TGI: 2.93 µM
DU-145 prostate
  GI50: 1.76 µM
  TGI: 3.25 µM
EKVX NSCLC
  GI50: 2.06 µM
  TGI: 4.38 µM
HCC-2998 colon
  GI50: 1.98 µM
  TGI: 3.57 µM
HCT-116 colon
  GI50: 1.28 µM
  TGI: 2.6 µM
HCT-15 colon
  GI50: 7.48 µM
  TGI: 24.5 µM
HL-60(TB) leukemia
  GI50: 1.47 µM
  TGI: 3.45 µM
HOP-62 NSCLC
  GI50: 1.63 µM
  TGI: 3.42 µM
HOP-92 NSCLC
  GI50: 2.49 µM
  TGI: 14.7 µM
HS 578T breast
  GI50: 2.03 µM
  TGI: 4.49 µM
HT29 colon
  GI50: 1.41 µM
  TGI: 3.13 µM
IGROV1 ovarian
  GI50: 6.13 µM
  TGI: 21.7 µM
KM12 colon
  GI50: 1.74 µM
  TGI: 3.27 µM
LOX IMVI melanoma
  GI50: 1.82 µM
  TGI: 3.36 µM
M14 melanoma
  GI50: 1.36 µM
  TGI: 2.89 µM
MALME-3M melanoma
  GI50: 1.08 µM
  TGI: 2.44 µM
MCF7 breast
  GI50: 0.578 µM
  TGI: 2.19 µM
MDA-MB-231 breast
  GI50: 2.11 µM
  TGI: 3.85 µM
MDA-MB-435
  GI50: 1.66 µM
  TGI: 3.1 µM
MOLT-4 leukemia
  GI50: 2.33 µM
  TGI: 4.96 µM
NCI-H226 lung
  GI50: 9.59 µM
  TGI: 29.9 µM
NCI-H23 lung
  GI50: 1.71 µM
  TGI: 3.5 µM
NCI-H460 lung
  GI50: 1.9 µM
  TGI: 3.55 µM
NCI-H522 lung
  GI50: 1.47 µM
  TGI: 3.39 µM
NCI/ADR-RES ovarian
  GI50: 25.7 µM
  TGI: > 100 µM
OVCAR-3 ovarian
  GI50: 1.58 µM
  TGI: 3.1 µM
OVCAR-4 ovarian
  GI50: 1.74 µM
  TGI: 3.45 µM
OVCAR-5 ovarian
  GI50: 2.68 µM
  TGI: 6.58 µM
OVCAR-8 ovarian
  GI50: 2.02 µM
  TGI: 4.7 µM
PC-3 prostate
  GI50: 1.66 µM
  TGI: 3.79 µM
RPMI-8226 leukemia
  GI50: 2.06 µM
  TGI: 4.51 µM
RXF 393 renal
  GI50: 1.53 µM
  TGI: 3.12 µM
SF-268 CNS
  GI50: 1.97 µM
  TGI: 3.93 µM
SF-295 CNS
  GI50: 2.44 µM
  TGI: 9.51 µM
SF-539 CNS
  GI50: 1.62 µM
  TGI: 3.09 µM
SK-MEL-2 melanoma
  GI50: 1.87 µM
  TGI: 3.5 µM
SK-MEL-28 melanoma
  GI50: 1.77 µM
  TGI: 3.34 µM
SK-MEL-5 melanoma
  GI50: 3.36 µM
  TGI: 15.5 µM
SN12C renal
  GI50: 1.9 µM
  TGI: 3.96 µM
SNB-75 CNS
  GI50: 1.87 µM
  TGI: 9.97 µM
SR leukemia
  GI50: 1.7 µM
  TGI: 5.11 µM
SW-620 colon
  GI50: 1.47 µM
  TGI: 3.09 µM
T-47D breast
  GI50: 1.38 µM
  TGI: 3.33 µM
U251 CNS
  GI50: 1.62 µM
  TGI: 3.04 µM
UACC-257 melanoma
  GI50: 1.75 µM
  TGI: 3.42 µM
UACC-62 melanoma
  GI50: 1.58 µM
  TGI: 3.05 µM
UO-31 renal
  GI50: 12.5 µM
  TGI: 28 µM

From PubChem BioAssay (NCI)
